# Data from patent publication US20250144067A1, “PERSONALIZED STARVATION THERAPY FOR CANCER” (Faeth Therapeutics, Inc., priority 2021, published 2025).
# Where a name gives a salt, the structure may show the parent alone.
# Key:
# [1] = tested on: NCI-H292 lung cancer cells; assay: FDA drug screening, complete media vs cholesterol-free media without statin (TABLE 1); assay type: cell-based, human
# [2] = tested on: NCI-H292 lung cancer cells; assay: FDA drug screening, complete media vs cholesterol-free media with simvastatin (TABLE 2); assay type: cell-based, human; conditions: for Cholesterol-free media + simvastatin (0.04 μM) / Complete Media: NCI-H292 cells
# [3] = Complete minus Cholesterol-free, […]
# [4] = NCI-H292 cells, cholesterol-free media without statin, FDA drug library screen
# [5] = NCI-H292 cells, complete media, FDA drug library screen
# [6] = FDA drug library screen, cholesterol-free media with simvastatin 0.04 μM
# [7] = FDA drug library screen, complete media
# [8] = complete media vs cholesterol-free media + simvastatin (0.04 μM), […]
# [9] = Complete minus Cholesterol-free, >0 enhanced anti-cancer activity, about 0 neutral, <0 antagonist
# [10] = complete media vs cholesterol-free media + simvastatin (0.04 μM), >0 enhanced anti-cancer activity, about 0 neutral, <0 antagonist
# [11] = Complete minus Cholesterol-free, greater than 0 enhanced anti-cancer activity, about 0 neutral, below 0 antagonists
# [12] = NCI-H292 cells in cholesterol-free media without statin
# [13] = NCI-H292 cells in complete media
# [14] = cholesterol-free media with simvastatin 0.04 μM, FDA drug library screen (TABLE 2)
# [15] = complete media, FDA drug library screen (TABLE 2)
# [16] = complete media minus cholesterol-free media + simvastatin (0.04 μM), >0 enhanced anti-cancer activity, about 0 neutral, <0 antagonist
# [17] = complete vs cholesterol-free media, […]
# [18] = FDA library drug in cholesterol-free media with simvastatin 0.04 μM
# [19] = FDA library drug in complete media
# [20] = NCI-H292 cells, cholesterol-free media without statin
# [21] = drug in cholesterol-free media with simvastatin 0.04 μM
# [22] = complete media minus cholesterol-free media + simvastatin, >0 enhanced anti-cancer activity, about 0 neutral, <0 antagonist
# [23] = cholesterol-free media with simvastatin 0.04 μM, […]
# [24] = complete media minus cholesterol-free media + simvastatin, […]
# [25] = Complete minus Cholesterol-free, greater than 0 enhanced anti-cancer activity, about 0 neutral, below 0 antagonist
# [26] = NCI-H292 cells, FDA drug library screen, cholesterol-free media without statin
# [27] = NCI-H292 cells, FDA drug library screen, complete media
# [28] = complete vs cholesterol-free media, >0 enhanced anti-cancer activity, about 0 neutral, <0 antagonist
smiles,measurement,setting,value
CC[C@@]1(O)C(=O)OCc2c1cc1n(c2=O)Cc2cc3cc(O)ccc3nc2-1 [(S)-10-Hydroxycamptothecin],Difference,[1]; [3],0.01
same,Cholesterol-free,[1]; [4],0.01962
same,Complete,[1]; [5],0.02742
same,Cholesterol-free media + simvastatin (0.04 μM),[2]; [6],0.2337
same,Complete Media,[2]; [7],0.138
same,Difference,[2]; [8],−0.10
CC(C)Cc1ccc([C@H](C)C(=O)O)cc1 [(S)-(+)-Ibuprofen],Difference,[1]; [9],−0.01
same,Cholesterol-free,[1]; [4],1.011
same,Complete,[1]; [5],0.9982
same,Complete Media,[2]; drug in complete media,0.9605
same,Difference,[2]; [10],−0.26
CC(C)NC[C@H](O)COc1cccc2ccccc12.Cl [(S)-(−)-Propranolol (hydrochloride)],Difference,[1]; [11],−0.61
same,Cholesterol-free,[1]; [12],1.5
same,Complete,[1]; [13],0.8879
same,Cholesterol-free media + simvastatin (0.04 μM),[2]; [14],1.665
same,Complete Media,[2]; [15],1.663
same,Difference,[2]; [16],0.00
C[C@H](Oc1cc(-c2cnn(C3CCNCC3)c2)cnc1N)c1c(Cl)ccc(F)c1Cl [(S)-Crizotinib],Difference,[1]; [3],0.02
same,Cholesterol-free,[1]; [4],1.253
same,Complete,[1]; [5],1.275
same,Cholesterol-free media + simvastatin (0.04 μM),[2]; [6],1.094
same,Complete Media,[2]; [7],0.9518
same,Difference,[2]; [8],−0.14
N[C@@H](CCC(=O)O)C(=O)O [(S)-Glutamic acid],Cholesterol-free,[1]; [4],1.299
same,Complete,[1]; [5],1.635
same,Difference,[1]; [17],0.34
same,Cholesterol-free media + simvastatin (0.04 μM),[2]; [6],0.9378
same,Complete Media,[2]; [7],0.8445
same,Difference,[2]; [8],−0.09
C#CCN[C@H]1CCc2ccccc21 [(S)-Rasagiline],Difference,[1]; [9],0.05
same,Cholesterol-free,[1]; [4],1.001
same,Complete,[1]; [5],1.048
same,Cholesterol-free media + simvastatin (0.04 μM),[2]; [18],1.283
same,Complete Media,[2]; [19],0.8996
same,Difference,[2]; [10],−0.38
COc1cc2nc(N3CCN(C(=O)[C@@H]4CCCO4)CC3)nc(N)c2cc1OC [(S)-Terazosin],Difference,[1]; [9],0.01
same,Cholesterol-free,[1]; [4],0.9099
same,Complete,[1]; [5],0.9163
same,Cholesterol-free media + simvastatin (0.04 μM),[2]; [6],0.9768
same,Complete Media,[2]; [7],0.8794
same,Difference,[2]; [10],−0.10
COc1ccc(CCN(C)CCC[C@@](C#N)(c2ccc(OC)c(OC)c2)C(C)C)cc1OC.Cl [(S)-Verapamil (hydrochloride)],Difference,[1]; [3],−0.20
same,Cholesterol-free,[1]; [20],1.169
same,Complete,"[1]; NCI-H292 cells, complete media",0.9711
same,Cholesterol-free media + simvastatin (0.04 μM),[2]; [21],1.086
same,Complete Media,[2]; drug in complete media,0.9249
same,Difference,[2]; [8],−0.16
CN1CCN(CC/C=C2/c3ccccc3Sc3ccc(S(=O)(=O)N(C)C)cc32)CC1 [(Z)-Thiothixene],Difference,[1]; [9],−0.29
same,Cholesterol-free,[1]; [20],1.344
same,Complete,"[1]; NCI-H292 cells, complete media",1.05
same,Cholesterol-free media + simvastatin (0.04 μM),"[2]; cholesterol-free media with simvastatin 0.04 μM, cell growth value in FDA drug screen",0.9883
same,Complete Media,"[2]; complete media, cell growth value in FDA drug screen",1.062
same,Difference,[2]; [22],0.07
O=C1C=C2C=C[C@@H]3C[C@@]2(O1)[C@H]1CCCCN31 [(−)-Securinine],Cholesterol-free,[1]; [4],0.7572
same,Complete,[1]; [5],0.9271
same,Difference,[1]; [17],0.17
same,Cholesterol-free media + simvastatin (0.04 μM),[2]; [23],0.8712
same,Complete Media,"[2]; complete media, […]",0.9865
same,Difference,[2]; [24],0.12
C1CCN2C[C@@H]3C[C@@H](CN4CCCC[C@@H]34)[C@H]2C1 [(−)-Sparteine],Difference,[1]; [3],−0.60
same,Cholesterol-free,[1]; [12],1.432
same,Complete,[1]; [13],0.8366
same,Cholesterol-free media + simvastatin (0.04 μM),[2]; [23],1.054
same,Complete Media,"[2]; complete media, […]",1.106
same,Difference,[2]; [24],0.05
Nc1ncnc2c1ncn2[C@@H]1O[C@H](COP(=O)(O)OP(=O)(O)OP(=O)(O)O)[C@@H](O)[C@H]1O [ATP],Difference,[1]; [25],−0.10
same,Cholesterol-free,[1]; [26],1.57
same,Complete,[1]; [27],1.466
same,Cholesterol-free media + simvastatin (0.04 μM),[2]; [21],1.049
same,Complete Media,[2]; drug in complete media,0.8041
same,Difference,[2]; [10],−0.24
CN(C)C(=O)c1ccc(S(=O)(=O)c2ccc(NC(=O)[C@@](C)(O)C(F)(F)F)c(Cl)c2)cc1 [AZD7545],Difference,[1]; [3],−0.01
same,Cholesterol-free,[1]; [4],0.721
same,Complete,[1]; [5],0.7125
same,Cholesterol-free media + simvastatin (0.04 μM),[2]; [6],0.8136
same,Complete Media,[2]; [7],1.088
same,Difference,[2]; [24],0.27
Nc1nc(NC2CC2)c2ncn([C@H]3C=C[C@@H](CO)C3)c2n1.Nc1nc(NC2CC2)c2ncn([C@H]3C=C[C@@H](CO)C3)c2n1.O=S(=O)(O)O [Abacavir (sulfate)],Difference,[1]; [9],0.06
same,Cholesterol-free,[1]; [4],0.4233
same,Complete,[1]; [5],0.4872
same,Cholesterol-free media + simvastatin (0.04 μM),[2]; [6],0.2456
same,Complete Media,[2]; [7],0.4029
same,Difference,[2]; [22],0.16
Nc1nc(NC2CC2)c2ncn([C@H]3C=C[C@@H](CO)C3)c2n1 [Abacavir],Cholesterol-free,[1]; [4],0.6425
same,Complete,[1]; [5],1.2
same,Difference,[1]; [28],0.56
same,Cholesterol-free media + simvastatin (0.04 μM),[2]; [6],1.851
same,Complete Media,[2]; [7],2.026
same,Difference,[2]; [22],0.18
CCN1CCN(Cc2ccc(Nc3ncc(F)c(-c4cc(F)c5nc(C)n(C(C)C)c5c4)n3)nc2)CC1 [Abemaciclib],Cholesterol-free,[1]; [4],0.7212
same,Complete,[1]; [5],0.8498
same,Difference,[1]; [28],0.13
same,Cholesterol-free media + simvastatin (0.04 μM),[2]; [18],1.011
same,Complete Media,[2]; [19],0.6686
same,Difference,[2]; [10],−0.34
CC(=O)O[C@H]1CC[C@@]2(C)C(=CC[C@@H]3[C@@H]2CC[C@]2(C)C(c4cccnc4)=CC[C@@H]32)C1 [Abiraterone acetate],Cholesterol-free,[1]; [4],0.5232
same,Complete,[1]; [5],1.307
same,Difference,[1]; [28],0.78
same,Cholesterol-free media + simvastatin (0.04 μM),[2]; [18],1.209
same,Complete Media,[2]; [19],0.9
same,Difference,[2]; [10],−0.31
C[C@]12CC[C@H](O)CC1=CC[C@@H]1[C@@H]2CC[C@]2(C)C(c3cccnc3)=CC[C@@H]12 [Abiraterone],Cholesterol-free,[1]; [4],1.119
same,Complete,[1]; [5],1.371
same,Difference,[1]; [28],0.25
same,Cholesterol-free media + simvastatin (0.04 μM),[2]; [18],1.907
same,Complete Media,[2]; [19],1.473
same,Difference,[2]; [10],−0.43
CC#CC(=O)N1CCC[C@H]1c1nc(-c2ccc(C(=O)Nc3ccccn3)cc2)c2c(N)nccn12 [Acalabrutinib],Cholesterol-free,[1]; [4],0.7449
same,Complete,[1]; [5],0.989
same,Difference,[1]; [28],0.24
same,Cholesterol-free media + simvastatin (0.04 μM),[2]; [6],1.302
same,Complete Media,[2]; [7],1.618
same,Difference,[2]; [22],0.32
CC(=O)NCCCS(=O)(=O)O [Acamprosate (calcium)],Difference,[1]; [3],0.03
same,Cholesterol-free,[1]; [4],1.751
same,Complete,[1]; [5],1.779
same,Cholesterol-free media + simvastatin (0.04 μM),[2]; [14],1.34
same,Complete Media,[2]; [15],1.328
same,Difference,"[2]; complete media minus cholesterol-free media + simvastatin (0.04 μM), […]",−0.01
C[C@H]1O[C@H](O[C@H]2[C@H](O)[C@@H](O)[C@@H](O[C@H]3[C@H](O)[C@@H](O)C(O)O[C@@H]3CO)O[C@@H]2CO)[C@H](O)[C@@H](O)[C@@H]1N[C@H]1C=C(CO)[C@@H](O)[C@H](O)[C@H]1O (some centres unmarked) [Acarbose],Difference,[1]; [25],−0.13
same,Cholesterol-free,[1]; [26],1.056
same,Complete,[1]; [27],0.9216
same,Cholesterol-free media + simvastatin (0.04 μM),[2]; [6],0.841
same,Difference,[2]; [22],0.31
CCCC(=O)Nc1ccc(OCC(O)CNC(C)C)c(C(C)=O)c1 (centres unmarked) [Acebutolol (hydrochloride)],Difference,[1]; [11],−0.56
same,Cholesterol-free,[1]; [12],1.541
same,Complete,[1]; [13],0.9763
same,Cholesterol-free media + simvastatin (0.04 μM),[2]; [6],1.195
same,Complete Media,[2]; [7],1.105
same,Difference,[2]; [10],−0.09
O=C(O)COC(=O)Cc1ccccc1Nc1c(Cl)cccc1Cl [Aceclofenac],Cholesterol-free,[1]; [4],0.9513
same,Complete,[1]; [5],1.14
same,Difference,[1]; [28],0.19
same,Cholesterol-free media + simvastatin (0.04 μM),[2]; [6],1.455
same,Complete Media,[2]; [7],1.329
same,Difference,[2]; [10],−0.13
Cn1c(=O)c2c(ncn2CC(=O)O)n(C)c1=O [Acefylline],Difference,[1]; [9],−0.31
same,Cholesterol-free,[1]; [20],1.455
same,Cholesterol-free media + simvastatin (0.04 μM),[2]; [14],1.078
same,Complete Media,[2]; [15],1.058
same,Difference,[2]; [16],−0.02
CC(=O)NC(CCC(N)=O)C(=O)O (centres unmarked) [Aceglutamide],Cholesterol-free,[1]; [20],1.178
same,Complete,"[1]; NCI-H292 cells, complete media",0.7674
same,Difference,"[1]; complete vs cholesterol-free media, greater than 0 enhanced anti-cancer activity, about 0 neutral, below 0 antagonists",−0.41
same,Cholesterol-free media + simvastatin (0.04 μM),[2]; [6],0.762
same,Complete Media,[2]; [7],1.026
same,Difference,[2]; [22],0.26
COc1ccc2c(c1)c(CC(=O)OCC(=O)O)c(C)n2C(=O)c1ccc(Cl)cc1 [Acemetacin],Cholesterol-free,[1]; [4],1.099
same,Complete,[1]; [5],1.479
same,Difference,[1]; [28],0.38
same,Cholesterol-free media + simvastatin (0.04 μM),[2]; [18],2.236
same,Complete Media,[2]; [19],1.509
same,Difference,[2]; [10],−0.73
CC(=O)CC(c1ccc([N+](=O)[O-])cc1)c1c(O)c2ccccc2oc1=O (centres unmarked) [Acenocoumarol],Difference,[1]; [9],−0.28
same,Cholesterol-free,[1]; [20],1.889
same,Complete,"[1]; NCI-H292 cells, complete media",1.605
same,Cholesterol-free media + simvastatin (0.04 μM),[2]; [6],2.014
same,Difference,[2]; [16],−0.90
CC(=O)Nc1nnc(S(N)(=O)=O)s1 [Acetazolamide],Cholesterol-free,[1]; [4],0.821
same,Complete,[1]; [5],0.9414
same,Difference,[1]; [28],0.12
same,Cholesterol-free media + simvastatin (0.04 μM),[2]; [14],0.9594
same,Complete Media,[2]; [15],0.9398
same,Difference,[2]; [16],−0.02
